Measured values: patent publication US10414891B2, “Polyurethane curatives” (The Shepherd Chemical Company, priority 2015, dated 2019)

Tests used:
[1] = Accelerated aging of curatives in polyol mix with water and temperature; format: physicochemical; details: curative 2.0 parts
Text: [Note: polyols supplied to Shepherd as their 4-component polyol systems by Huntsman.] BiCAT 8108 is bismuth neodecanoate, 20 wt % bismuth.

[2] = Moisture stability of curative in polyol side of two-part TDI spray-foam system; format: physicochemical
Experimental: BiCAT 8842 was used in a two-part polyurethane system (TDI) for spray-foam applications. The BiCAT 8842 was added at 0.125 wt % to the polyol side (B-part). In addition, the polyol side contained 2.5 wt % water. […] The same dosage of stannous octoate curative was added to the TDI-tin-based control formulation.

[3] = DAY 1, DI water 2.5 parts, oven 130° F.
[4] = DAY 2, DI water 2.5 parts, oven 130° F.
[5] = DAY 3, DI water 2.5 parts, oven 130° F.
[6] = DAY 4, DI water 2.5 parts, oven 160° F.
[7] = DAY 5, DI water 4.0 parts, oven 160° F.
[8] = DAY 6, DI water 4.0 parts, oven 160° F.

| Substance | Stability [1, 3] | Stability [1, 4] | Stability [1, 5] | Stability [1, 6] | Stability [1, 7] | Stability [1, 8] | time until formulation began to turn white (bismuth hydrolysis to the hydroxide) ([2]; same use level, polyol side containing 2.5 wt % water) | stability in the presence of moisture ([2]; 0.125 wt % in polyol side (B-part) containing 2.5 wt % water) |
| --- | --- | --- | --- | --- | --- | --- | --- | --- |
| bismuth neodecanoate [BiCAT 8108, reference compound] | transparent | transparent | transparent | transparent | very sl. hazy | opaque; ppt formation |  |  |
| bismuth neodecanoate [reference compound] |  |  |  |  |  |  | ~14 min |  |
| bismuth, 1,1′,1″,1′″-(1,2-ethanediyldinitrilo)tetrakis[2-propanol] neodecanoate complexes [Curative 8840] | transparent | transparent | transparent | transparent | transparent | transparent |  |  |
| bismuth, 2,2′,2″,2′″-(1,2-ethanediyldinitrilo)tetrakis[ethanol] neodecanoate complexes [Curative 8842] | transparent | transparent | transparent | transparent | transparent | transparent |  | remained stable for many weeks |
